Measurements taken from US20260199273A1, “Compounds for the Treatment of Neuromuscular Disorders” (NMD PHARMA A/S, priority 2022, published 2026).

Tests used:
CIC-1 ion channel = target: T1, CIC-1 ion channel (Rattus norvegicus, UniProt P35524); assay: Electrophysiological measurement of compound inhibition of CIC-1 in rat muscle (Gm in soleus fibres, three micro-electrodes); format: cell-based; settings: Gm in individual fibres of whole rat soleus muscles, approx. 30° C., four increasing compound concentrations; read-out: Potency Range (EC50, inhibition of CIC-1 ion channel)
T1 construct: from tissue; host or cells: whole soleus muscle of 12-14 week old Wistar rats
T1 sequence (P35524 1-994): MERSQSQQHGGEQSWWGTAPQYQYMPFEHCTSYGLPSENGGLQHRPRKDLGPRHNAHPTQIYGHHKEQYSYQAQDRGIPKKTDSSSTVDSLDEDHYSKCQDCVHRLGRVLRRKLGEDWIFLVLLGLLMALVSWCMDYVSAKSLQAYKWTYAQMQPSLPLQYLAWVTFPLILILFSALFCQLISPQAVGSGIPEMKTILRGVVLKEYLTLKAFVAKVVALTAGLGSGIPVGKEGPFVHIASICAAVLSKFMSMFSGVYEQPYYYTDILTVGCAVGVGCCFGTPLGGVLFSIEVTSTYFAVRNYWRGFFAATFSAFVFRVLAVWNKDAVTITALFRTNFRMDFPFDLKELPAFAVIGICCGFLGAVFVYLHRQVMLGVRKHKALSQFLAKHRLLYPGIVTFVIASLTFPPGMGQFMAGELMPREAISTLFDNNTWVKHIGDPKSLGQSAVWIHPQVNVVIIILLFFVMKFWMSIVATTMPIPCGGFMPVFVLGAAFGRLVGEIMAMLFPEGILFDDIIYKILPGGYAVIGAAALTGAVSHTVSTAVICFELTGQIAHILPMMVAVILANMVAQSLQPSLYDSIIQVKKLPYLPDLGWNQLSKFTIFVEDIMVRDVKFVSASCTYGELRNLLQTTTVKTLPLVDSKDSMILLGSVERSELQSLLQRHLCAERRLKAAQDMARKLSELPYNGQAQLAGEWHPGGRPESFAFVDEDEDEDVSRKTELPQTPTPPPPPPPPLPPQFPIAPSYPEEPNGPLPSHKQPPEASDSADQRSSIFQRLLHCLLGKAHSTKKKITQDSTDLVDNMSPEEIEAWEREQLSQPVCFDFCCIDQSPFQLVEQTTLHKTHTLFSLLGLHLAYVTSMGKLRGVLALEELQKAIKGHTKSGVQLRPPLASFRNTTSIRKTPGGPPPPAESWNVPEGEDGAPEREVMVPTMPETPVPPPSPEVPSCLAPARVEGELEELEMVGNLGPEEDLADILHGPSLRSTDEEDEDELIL
Protocol: Apparent CIC-1 affinity was reported by the concentration of compound at which 50% of the compound's full inhibition of CIC-1 was observed (EC50) (see also WO2019/115777).
Experimentally, Gm was measured in individual fibres of whole rat soleus muscles using a three micro-electrodes technique described in this example and in full detail elsewhere (Riisager et al., Determination of cable parameters in skeletal muscle fibres during repetitive firing of action potentials. Journal of Physiology, 2014, 592, 4417-4429). Briefly, intact rat soleus muscles were dissected out from 12-14 week old Wistar rats and placed in an experimental chamber that was perfused with a standard Krebs Ringer solution containing 122 mM NaCl, 25 mM NaHCO3, 2.8 mM KCl, 1.2 mM KH2PO4, 1.2 mM MgSO4, 1.3 mM CaCl2, 5.0 mM D-glucose. During experiments, the solution was kept at approx. 30° C. and continuously equilibrated with a mixture of 95% O2 and 5% CO2, pH ~7.4. The experimental chamber was placed in Nikon upright microscope that was used to visualize individual muscle fibres and the three electrodes (glass pipettes filled with 2 M potassium citrate). For Gm measurements, the electrodes were inserted into the same fibre with known inter-electrode distances of 0.35-0.5 mm (V1-V2, X1) and 1.1-1.5 mm (V1-V3, X3). The membrane potential of the impaled muscle fibre was recorded by all electrodes. Two of the electrodes were furthermore used to inject 50 ms current pulses of −30 nA. […] The steady state voltage deflection at each distance was divided by the magnitude of current injected (−30 nA) and the resulting transfer resistances were plotted against inter-electrode distance and the data was fitted to a mono-exponential function from which Gm could be calculated using linear cable theory.
To establish a dose response relationship, Gm was first determined in 10 muscle fibres in the absence of compound and then at four increasing compound concentrations with Gm determinations in 5-10 fibres at each concentration. The average Gm values at each concentration were plotted against compound concentration and the data was fitted to sigmoidal function to obtain an EC5o value.

[1] = tested on: isolated rat soleus nerve-muscle preparations; assay: Measurement of force in an in vitro model: recovery of nerve-stimulated contractile force after tubocurarine; settings: 40 min, after 40 mins of compound exposure, tubocurarine (115 nM) for 90 minutes, read-out: Point increase (%): percentage increase of initial force that was restored; for activation at 50 µM: 50 μM of test compound; for activation at 10 µM: 10 μM of test compound
Protocol: In one aspect, the invention relates to a method for recovery of force in muscles with neuromuscular dysfunction, said method comprising administering a compound or a composition as defined herein to a subject in need thereof. The term “recovery of force in muscles with neuromuscular dysfunction” as used herein refers to the ability of a compound to recover contractile force in nerve-stimulated healthy rat muscle after exposure to submaximal concentration (115 nM) of tubocurarine for 90 minutes.
Recovery of force is quantified as the percentage of the force prior to tubocurarine that is recovered after addition of the compound. In one embodiment, said recovery of force is >5%, such as >10%, such as >15%, such as >20%, such as >25%, such as >30%, such as >35%.
The current disclosure relates to compounds that inhibit CIC-1 ion channels and increase muscle excitability and thereby improve muscle function in clinical conditions where muscle activation is failing. Such conditions result in loss of contractile function of skeletal muscle, weakness and excessive fatigue. In this series of experiments the compounds were tested for their ability to restore contractile function of isolated rat muscle when the neuromuscular transmission had been compromised akin to neuromuscular disorders.
Experimentally, soleus muscles from 4-5 week old rats were isolated with the motor nerve remaining attached. The nerve-muscle preparations were mounted in experimental setups that enabled electrical stimulation of the motor nerve. Stimulation of the motor nerve led to activation of the muscle fibres and ensuing force production that was recorded. The nerve-muscle preparations were also in these experiments incubated in the standard Krebs Ringer (see example 15) and the solution was heated to 30° C. and continuously equilibrated with a mixture of 95% O2 and 5% CO2, pH ~7.4.
After mounting the nerve-muscle preparation in the experimental setup, the contractile function of the muscle was initially assessed under the control conditions. Sub-maximal concentration of tubocurarine (115 nM), an acetylcholine receptor antagonist, was then added to the experimental bath to impose partial inhibition of the ability of the motor nerve to activate the muscle fibres. The experimental condition mimics the failing neuromuscular transmission in a range of neuromuscular disorders. After addition of tubocurarine the contractile force declined over the next 90 minutes to 10-50% of the control force. The test compound was then added to obtain the required compound concentration in the bath and the contractile force recovered was measured. To quantify the ability of the compound to restore force the percentage of the initial force that was restored was determined after 40 mins of compound exposure and the point increase is reported in Tables 3 to 7.

SMILES	EC50 (CIC-1 ion channel) [nM]	activation at 50 µM [1] [%]	activation at 10 µM [1] [%]
COc1c(Cl)cc2c(c1C(=O)O)C1CCC2CC1 [Compound A-29, 5-Chloro-4-methoxytricyclo[6.2.2.0^2,7]dodeca-2,4,6-triene-3-carboxylic acid]	2000 to 10000	42	–
O=C(O)c1c(Cl)c(Cl)cc2c1CCCC2 [Compound A-30, 2,3-Dichloro-5,6,7,8-tetrahydronaphthalene-1-carboxylic acid]	200 to 2000	–	45
COc1c(Cl)cc2c(c1C(=O)O)SCCC2 [Compound A-31, 6-chloro-7-methoxy-3,4-dihydro-2H-1-benzothiopyran-8-carboxylic acid]	200 to 2000	–	48
CSc1c(Cl)cc2c(c1C(=O)O)CCCC2 [Compound A-32, 3-Chloro-2-(methylsulfanyl)-5,6,7,8-tetrahydronaphthalene-1-carboxylic acid]	200 to 2000	–	24
Cc1c(Cl)cc2c(c1C(=O)O)CCCCC2 [Compound A-33, 3-Chloro-2-methyl-6,7,8,9-tetrahydro-5H-benzo[7]annulene-1-carboxylic acid]	2000 to 10000	–	17
C=Cc1c(Cl)cc2c(c1C(=O)O)CCCC2 [Compound A-35, 3-Chloro-2-ethenyl-5,6,7,8-tetrahydronaphthalene-1-carboxylic acid]	200 to 2000	–	16
O=C(O)c1c(F)c(Cl)cc2c1OCCC2 [Compound A-36, 6-Chloro-7-fluoro-3,4-dihydro-2H-1-benzopyran-8-carboxylic acid]	2000 to 10000	–	43
O=C(O)c1c(Cl)c(F)cc2c1OCCC2 [Compound A-37, 7-Chloro-6-fluoro-3,4-dihydro-2H-1-benzopyran-8-carboxylic acid]	2000 to 10000	48	–
O=C(O)c1c(F)c(Cl)cc2c1SCCC2 [Compound A-38, 6-Chloro-7-fluoro-3,4-dihydro-2H-1-benzothiopyran-8-carboxylic acid]	200 to 2000	–	48
O=C(O)c1c(F)c(Cl)cc2c1CCCO2 [Compound A-39, 7-Chloro-6-fluoro-3,4-dihydro-2H-1-benzopyran-5-carboxylic acid]	200 to 2000	–	59
CN1CCCc2cc(Cl)c(F)c(C(=O)O)c21 [Compound A-40, 6-Chloro-7-fluoro-1-methyl-1,2,3,4-tetrahydroquinoline-8-carboxylic acid]	200 to 2000	–	39
O=C(O)c1c(F)c(Cl)cc2c1NCCC2 [Compound A-41, 6-Chloro-7-fluoro-1,2,3,4-tetrahydroquinoline-8-carboxylic acid]	2000 to 10000	–	49
O=C(O)c1c(F)c(F)cc2c1SCCC2 [Compound A-42, 6,7-difluoro-3,4-dihydro-2H-1-benzothiopyran-8-carboxylic acid]	10000 to 20000	47	–
O=C(O)c1c(F)c(F)cc2c1CCCC2 [Compound A-44, 2,3-Difluoro-5,6,7,8-tetrahydronaphthalene-1-carboxylic acid]	2000 to 10000	59	–
COc1c(C)cc2c(c1C(=O)O)CCC2 [Compound A-47, 5-Methoxy-6-methyl-2,3-dihydro-1H-indene-4-carboxylic acid]	2000 to 10000	37	–
Cc1cc2c(c(C(=O)O)c1F)SCCC2 [Compound A-48, 7-fluoro-6-methyl-3,4-dihydro-2H-1-benzothiopyran-8-carboxylic acid]	2000 to 10000	–	25
Cc1cc2c(c(C(=O)O)c1F)CCCC2 [Compound A-49, 2-Fluoro-3-methyl-5,6,7,8-tetrahydronaphthalene-1-carboxylic acid]	200 to 2000	–	40
Cc1cc2c(c(C(=O)O)c1F)OCCC2 [Compound A-50, 7-fluoro-6-methyl-3,4-dihydro-2H-1-benzopyran-8-carboxylic acid]	2000 to 10000	51	–
CCc1cc2c(c(C(=O)O)c1F)CCCC2 [Compound A-51, 3-Ethyl-2-fluoro-5,6,7,8-tetrahydronaphthalene-1-carboxylic acid]	2000 to 10000	–	29
Cc1c(F)cc2c(c1C(=O)O)CCCC2 [Compound A-52, 3-Fluoro-2-methyl-5,6,7,8-tetrahydronaphthalene-1-carboxylic acid]	2000 to 10000	–	18
CC1(C)CCc2cc(Cl)cc(C(=O)O)c2O1 [Compound A-53, 6-Chloro-2,2-dimethyl-3,4-dihydro-2H-1-benzopyran-8-carboxylic acid]	200 to 2000	–	43
O=C(O)c1c(F)c(C2CC2)cc2c1CCCC2 [Compound A-54, 3-Cyclopropyl-2-fluoro-5,6,7,8-tetrahydronaphthalene-1-carboxylic acid]	10000 to 20000	47	–
O=C(O)c1c(Cl)c(F)cc2c1OCCCC2 [Compound A-56, 8-chloro-7-fluoro-2,3,4,5-tetrahydro-1-benzoxepine-9-carboxylic acid]	2000 to 10000	–	31
COc1c(Cl)cc2c(c1C(=O)O)C(F)(F)CCC2 [Compound A-59, 3-chloro-8,8-difluoro-2-methoxy-5,6,7,8-tetrahydronaphthalene-1-carboxylic acid]	2000 to 10000	–	53
